Experimental data taken from article PMC7044277 (Nature Communications, 2020).
“And” between values parts separate entries of the source, which are not always exact repeats. Equal entries are not always repeated.

Experiments:
[1] = biological target: DRD2 (D2 long receptor) wild-type (Homo sapiens, UniProt P14416); experiment: Radioligand competition binding, [3H]-N-methylspiperone, HEK293T membranes; conditions: for Ki: DRD2, [3H]-methylspiperone (0.8-1.0 nM), read-out: Ki
DRD3 wild-type = DRD3 wild-type (Homo sapiens, UniProt P35462); experiment: Radioligand competition binding, [3H]-N-methylspiperone; conditions: for Ki: DRD3, [3H]-methylspiperone (0.8-1.0 nM), read-out: Ki; for pKi ± SEM: DRD3 wild-type
[2] = biological target: T1, DRD4 (D4.4 variant) wild-type (Homo sapiens, UniProt P21917); experiment: as above; conditions: for Ki: DRD4, [3H]-methylspiperone (0.8-1.0 nM), read-out: Ki
T1 sequence (P21917 1-419): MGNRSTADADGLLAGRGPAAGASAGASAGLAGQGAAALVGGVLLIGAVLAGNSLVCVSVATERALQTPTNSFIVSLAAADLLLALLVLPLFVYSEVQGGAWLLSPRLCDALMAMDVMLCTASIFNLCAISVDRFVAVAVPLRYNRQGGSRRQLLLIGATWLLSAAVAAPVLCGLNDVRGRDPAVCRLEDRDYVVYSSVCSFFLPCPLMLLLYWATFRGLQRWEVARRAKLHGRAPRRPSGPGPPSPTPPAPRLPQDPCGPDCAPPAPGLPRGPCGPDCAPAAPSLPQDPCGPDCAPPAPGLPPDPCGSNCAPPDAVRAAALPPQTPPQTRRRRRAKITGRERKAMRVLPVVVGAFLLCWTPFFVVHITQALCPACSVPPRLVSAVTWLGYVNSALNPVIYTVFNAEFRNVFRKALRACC

DRD2 (D2 long receptor) [3] = biological target: T2, DRD2 (D2 long receptor) (Homo sapiens, UniProt P14416); experiment: Gαi/o-mediated cAMP inhibition (GloSensor split-luciferase cAMP reporter), HEK293T; format: cell-based; conditions: for EC50: agonist, Gαi/o-mediated cAMP inhibition, read-out: EC50 ± SEM; for Response, Fig_S11b dose-response: individual replicates;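 as to all read-outs here: compounds applied 15 min at room temperature, then luciferin plus 400 nM isoproterenol to raise cAMP through endogenous β2-adrenergic receptors, luminescence read 15 min later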
DRD4 (D4.4 variant) [4] = biological target: T3, DRD4 (D4.4 variant) (Homo sapiens, UniProt P21917); experiment: Gαi/o-mediated cAMP inhibition (GloSensor); format: cell-based; conditions: DRD4; agonist, cAMP inhibition; read-out: EC50 ± SEM
T3 sequence (P21917 1-419): T1 sequence (P21917 1-419)

DRD2 (D2 long receptor) [5] = biological target: T2, DRD2 (D2 long receptor); experiment: β-arrestin2 recruitment (Tango), HTLA cells; format: cell-based; conditions: for Emax relative to quinpirole response / EC50: DRD2; for Emax relative to quinpirole response: Tango; for EC50: β-arrestin2 recruitment (Tango), read-out: EC50 ± SEM; for Response, Fig_S11c dose-response: individual replicates
DRD3 = DRD3 (Homo sapiens, UniProt P35462); experiment: β-arrestin2 recruitment (Tango); format: cell-based; conditions: DRD3, Tango; for EC50: read-out: EC50 ± SEM
DRD4 (D4.4 variant) [6] = biological target: T3, DRD4 (D4.4 variant); experiment: β-arrestin2 recruitment (Tango); format: cell-based; conditions: DRD4; Tango; read-out: EC50 ± SEM
DRD2 F1103.28A = DRD2 F1103.28A (Homo sapiens, UniProt P14416, F110A); format: binding; set-up: expressed in transfected cells; host or cells: HEK293T (ATCC CRL-11268); conditions: DRD2 F1103.28A; for Ki: read-out: Ki
DRD2 F1103.28A, sequence (P14416 whole entry F110A): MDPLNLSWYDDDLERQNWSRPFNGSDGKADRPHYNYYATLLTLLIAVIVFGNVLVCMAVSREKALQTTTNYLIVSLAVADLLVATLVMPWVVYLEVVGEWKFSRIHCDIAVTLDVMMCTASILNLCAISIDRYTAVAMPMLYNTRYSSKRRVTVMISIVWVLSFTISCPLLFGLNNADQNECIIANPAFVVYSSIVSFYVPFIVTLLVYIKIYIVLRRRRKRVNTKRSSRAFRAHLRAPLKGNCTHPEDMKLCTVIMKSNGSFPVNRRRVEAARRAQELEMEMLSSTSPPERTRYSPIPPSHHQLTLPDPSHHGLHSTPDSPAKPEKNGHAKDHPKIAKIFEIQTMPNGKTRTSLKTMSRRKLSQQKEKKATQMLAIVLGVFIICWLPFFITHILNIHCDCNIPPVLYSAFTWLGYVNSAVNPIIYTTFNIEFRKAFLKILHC

T2 sequence (P14416 whole entry): as the sequence (P14416 whole entry F110A) above, with A110F counted along it
DRD2 (D2 long receptor) wild-type, sequence (P14416 whole entry): as the sequence (P14416 whole entry F110A) above, with A110F counted along it
DRD3, sequence (P35462 whole entry): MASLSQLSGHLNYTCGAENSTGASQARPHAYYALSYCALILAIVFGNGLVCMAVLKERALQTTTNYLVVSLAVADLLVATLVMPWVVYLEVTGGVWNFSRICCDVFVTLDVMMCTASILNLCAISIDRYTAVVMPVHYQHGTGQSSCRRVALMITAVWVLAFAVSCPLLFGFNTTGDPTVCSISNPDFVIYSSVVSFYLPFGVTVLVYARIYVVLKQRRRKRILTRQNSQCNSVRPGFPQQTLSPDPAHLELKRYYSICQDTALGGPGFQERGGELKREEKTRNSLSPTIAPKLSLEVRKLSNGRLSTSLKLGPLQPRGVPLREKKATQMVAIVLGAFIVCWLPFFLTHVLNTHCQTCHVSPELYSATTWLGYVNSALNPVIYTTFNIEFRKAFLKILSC
DRD3 wild-type, sequence (P35462 whole entry): as above

In the case of `CCOc1cccc2cc(C(C)NCc3ccccc3)oc12.Cl` (centres unmarked) [O4LE9], the Ki [1] is reported as > 10 µM, the Ki (DRD3 wild-type) is reported as 5.88 µM and the “pKi ± SEM” value (DRD3 wild-type) is reported as 5.23±0.25. The Ki [2] was > 10 µM, the EC50 (DRD2 (D2 long receptor) [3]; DRD2) was > 10 µM and the EC50 (DRD4 (D4.4 variant) [4]) was > 10 µM. For the same compound, the “Emax relative to quinpirole response” value (DRD2 (D2 long receptor) [5]) was 19.73%, the EC50 (DRD2 (D2 long receptor) [5]) was 5.37 ± 0.964 µM and the EC50 (DRD3) was > 10 µM. For the same compound, the EC50 (DRD4 (D4.4 variant) [6]) was > 10 µM, the “pKi ± SEM” value (DRD2 F1103.28A) was 5.28±0.02 and the Ki (DRD2 F1103.28A) was 5.25 µM.
`CCCOc1cccc2cc(C(C)NCC3(O)CCCCC3)oc12.Cl` (centres unmarked) [O5LE6] was tested, and the Ki [1] was 2.51 µM, the “pKi ± SEM” value ([1]; DRD2 wild-type) was 5.60±0.27 and the Ki (DRD3 wild-type) was 0.39 µM. For the same compound, the “pKi ± SEM” value (DRD3 wild-type) was 6.41±0.20, the Ki [2] was 6.6 µM and the “pKi ± SEM” value ([2]; DRD4 wild-type) was 5.18±0.16. The EC50 (DRD2 (D2 long receptor) [3]; DRD2) was 0.00051 ± 0.00022 µM, the “Emax relative to quinpirole response” value (DRD2 (D2 long receptor) [3]; DRD2, cAMP inhibition) was 92.80% and the “Response, Fig_S11b dose-response” value (DRD2 (D2 long receptor) [3]; Log[Drug] -5) was 93.7387 and 96.4518 and 83.3289 and 97.2506 and 100.948 and 91.5558 and 103.412 and 92.2091 and 101.183. For the same compound, the “Response, Fig_S11b dose-response” value (DRD2 (D2 long receptor) [3]; Log[Drug] -5.52) was 82.1384 and 82.3875 and 75.0785 and 87.4334 and 93.0858 and 74.7688 and 89.9797 and 94.4943 and 85.5765, the “Response, Fig_S11b dose-response” value (DRD2 (D2 long receptor) [3]; Log[Drug] -6) was 92.7696 and 95.5936 and 84.8792 and 92.7883 and 90.7908 and 90.8333 and 98.9533 and 107.927 and 83.4028 and the “Response, Fig_S11b dose-response” value (DRD2 (D2 long receptor) [3]; Log[Drug] -6.52) was 97.1163 and 91.7176 and 84.6854 and 100.523 and 99.588 and 84.586 and 94.4943 (2×) and 87.9175. For the same compound, the “Response, Fig_S11b dose-response” value (DRD2 (D2 long receptor) [3]; Log[Drug] -7) was 88.7275 and 92.9358 and 71.1749 and 92.7033 and 88.1559 and 76.2138 and 94.4943 and 90.0354 and 94.6058, the “Response, Fig_S11b dose-response” value (DRD2 (D2 long receptor) [3]; Log[Drug] -7.52) was 77.9025 and 80.4772 and 73.7773 and 81.6111 and 84.246 and 79.2737 and 92.3206 (2×) and 90.0912 and the “Response, Fig_S11b dose-response” value (DRD2 (D2 long receptor) [3]; Log[Drug] -8) was 77.3211 and 65.3055 and 54.0098 and 88.3259 and 67.3316 and 76.7238 and 92.3764 and 94.6058 and 90.1469. The “Response, Fig_S11b dose-response” value (DRD2 (D2 long receptor) [3]; Log[Drug] -8.52) was 58.6056 and 55.6709 and 54.785 and 76.7663 and 68.819 and 71.6664 and 72.5342 and 65.79 and 68.0195, the “Response, Fig_S11b dose-response” value (DRD2 (D2 long receptor) [3]; Log[Drug] -9) was 60.5713 and 46.8115 and 46.2578 and 72.3889 and 53.7745 and 57.9819 and 43.7184 and 46.0036 and 36.9186 and the “Response, Fig_S11b dose-response” value (DRD2 (D2 long receptor) [3]; Log[Drug] -11) was 6.418 and 5.781 and 25.106 and 20.5831 and 9.873 and -2.9186 and 1.972 and -15.9196 and 1.6931. The “Response, Fig_S11b dose-response” value (DRD2 (D2 long receptor) [3]; Log[Drug] -11.52) was -0.171 and -1.0016 and 12.1684 and 15.5258 and 10.8339 and -7.0018 and -2.6544, the “Response, Fig_S11b dose-response” value (DRD2 (D2 long receptor) [3]; Log[Drug] -12) was 10.388 and -0.6478 and -16.2541 and the EC50 (DRD4 (D4.4 variant) [4]) was > 10 µM. For the same compound, the “Emax relative to quinpirole response” value (DRD2 (D2 long receptor) [5]) was 96.83%, the EC50 (DRD2 (D2 long receptor) [5]) was 0.048 ± 0.0174 µM and the “response, Fig_S11c dose-response source data” value (DRD2 (D2 long receptor) [5]; Fig_S11c, Log[Drug] -5, replicate values) was 92.0049 and 94.8711 and 101.869 and 86.3956 and 96.7296 and 94.1831 and 124.768 and 128.356. For the same compound, the “Response, Fig_S11c dose-response” value (DRD2 (D2 long receptor) [5]; Log[Drug] -6.52) was 78.0067 and 72.6033 and 81.7269, the “Response, Fig_S11c dose-response” value (DRD2 (D2 long receptor) [5]; Log[Drug] -7) was 59.3634 and 78.1496 and 92.3943 and 62.4498 and 64.4647 and 75.7752 and 66.3683 and 83.054 and 11.3874 and the “Response, Fig_S11c dose-response” value (DRD2 (D2 long receptor) [5]; Log[Drug] -7.52) was 39.0633 and 46.4823 and 48.2261 and 47.7888 and 46.5069 and 50.1562 and 52.6803 and 36.834 and 2.983. For the same compound, the “Response, Fig_S11c dose-response” value (DRD2 (D2 long receptor) [5]; Log[Drug] -8) was 13.2042 and 18.1697 and 22.7864 and 24.8922 and 32.8443 and 29.0019 and 29.5472 and 40.4681 and 3.216, the “Response, Fig_S11c dose-response” value (DRD2 (D2 long receptor) [5]; Log[Drug] -8.52) was 6.043 and 5.645 and 6.29 and 8.275 and 9.219 and 10.0453 and 7.5026 and 13.6733 and the “Response, Fig_S11c dose-response” value (DRD2 (D2 long receptor) [5]; Log[Drug] -9) was 3.483 and 3.9317 and 4.775 and 3.72 and 3.708 and 4.581 and 2.217 and 12.7509 and 0.7411. The “Response, Fig_S11c dose-response” value (DRD2 (D2 long receptor) [5]; Log[Drug] -9.52) was 2.993 and 3.331 and 4.098 and 2.754 and 3.737 and 4.1942 and 7.991 and 10.1775 and 1.675, the “Response, Fig_S11c dose-response” value (DRD2 (D2 long receptor) [5]; Log[Drug] -10) was 3.128 and 3.469 and 3.576 and 3.051 and 3 and 3.543 and 4.136 and 3.1859 and 0.7745 and the “Response, Fig_S11c dose-response” value (DRD2 (D2 long receptor) [5]; Log[Drug] -10.52) was 3.13 and 3.099 and 3.417 and 2.557 and 2.786 and 3.353 and 2.31 and 1.747 and 0.1927. For the same compound, the “Response, Fig_S11c dose-response” value (DRD2 (D2 long receptor) [5]; Log[Drug] -11) was 2.735 and 2.569 and 3.311 and 2.422 and 2.816 and 3.208 and 1.747 and 3.739 and 0.4891, the “Response, Fig_S11c dose-response” value (DRD2 (D2 long receptor) [5]; Log[Drug] -11.52) was 2.576 and 2.946 and 3.152 and 2.7257 and 2.6254 and 2.896 and 3.227 and 4.708 and 2.264 and the “Response, Fig_S11c dose-response” value (DRD2 (D2 long receptor) [5]; Log[Drug] -12) was 2.314 (2×) and 2.658 and 2.679 and 2.551 and 2.481 and 2.532 and 1.9407. For the same compound, the “Emax relative to quinpirole response” value (DRD3) was 53.92%, the EC50 (DRD3) was 2.07 ± 0.524 µM and the EC50 (DRD4 (D4.4 variant) [6]) was > 10 µM. For the same compound, the “pKi ± SEM” value (DRD2 F1103.28A) was 6.17±0.24 and the Ki (DRD2 F1103.28A) was 0.68 µM.
